In patent publication US20200237759A1, “DOSAGE REGIME AND METHOD FOR TREATING PULMONARY ARTERIAL HYPERTENSION” (Altavant Sciences GmbH, priority 2019, published 2020):

Test: Part 2 MAD plasma pharmacokinetics, BID oral KAR5585 for 14 days
Conditions: for tmax: Median
[1] = 100 mg (Cohort 2) to 400 mg (Cohort 4) BID fed, 4-fold increase in dose
[2] = 100 mg BID fasted, Cohort 1, Day 1 AM, Mean
[3] = 100 mg BID fasted, Cohort 1, Day 14, Mean
[4] = 100 mg BID fed, Cohort 2, Day 1 AM, Mean
[5] = 100 mg BID fed, Cohort 2, Day 1 PM, Geo. Mean
[6] = 100 mg BID fed, Cohort 2, Day 1 PM, Mean
[7] = 100 mg BID fed, Cohort 2, Day 7 AM, Geo. Mean
[8] = 100 mg BID fed, Cohort 2, Day 7 AM, Mean
[9] = 100 mg BID fed, Cohort 2, Day 7 PM, Geo. Mean
[10] = 100 mg BID fed, Cohort 2, Day 14 AM, Geo. Mean
[11] = 100 mg BID fed, Cohort 2, Day 14 AM, Mean
[12] = 100 mg KAR5585 BID, fasted (Part 2, Cohort 1)
[13] = 200 mg BID fed, Cohort 3, Day 1 AM, Geo. Mean
[14] = 200 mg BID fed, Cohort 3, Day 1 PM, Geo. Mean

Procedure: Food effect was to be evaluated in Part 1, Period 2.
Part 2 (MAD): BID doses (separated by approximately 12 hours on Days 1 to 13) and a single AM dose on Day 14. One or more of the MAD Cohort could have been dosed once daily (QD).
Pharmacokinetic data were to be summarized descriptively.

Q: With `Nc1nc(O[C@H](c2ccc(Cl)cc2-c2ccccc2)C(F)(F)F)cc(N2CCC3(CC2)CN[C@H](C(=O)O)C3)n1` [KAR5417, (S)-8-(2-amino-6-((R)-1-(5-chloro-[1,1′-biphenyl]-2-yl)-2,2,2-trifluoroeth-oxy)pyrimidin-4-yl)-2,8-diazaspiro[4.5]decane-3-carboxylic acid] as the compound, how does the “increase in mean AUC0-12, Day 1” value [1] read?
A: 7.0 fold

Q: And the “increase in mean AUC0-12, Day 14” value [1]?
A: 4.6 fold

Q: What about the “increase in mean AUC0-24, Day 1” value [1] of the same compound?
A: 6.45 fold

Q: And the “increase in mean AUC0-24, Day 14” value [1]?
A: 4.45 fold

Q: What about the “increase in mean Cmax, Day 1” value [1] of the same compound?
A: 6.9 fold

Q: And the “increase in mean Cmax, Day 14” value [1]?
A: ~4.5 fold

Q: And the AUC0-12 [2]?
A: 741 ng·h/mL

Q: And the Cmax [2]?
A: 121 ng/mL

Q: What about the t1/2 [2] of the same compound?
A: 3.43 h

Q: What about the tmax (100 mg BID fasted, Cohort 1, Day 1 AM) of the same compound?
A: 3.0 h

Q: What about the AUC0-12 [3] of the same compound?
A: 1280 ng·h/mL

Q: What about the AUC0-24 [3] of the same compound?
A: 1650 ng·h/mL

Q: And the Cmax [3]?
A: 194 ng/mL

Q: And the t1/2 [3]?
A: 18.8 h

Q: And the tmax (100 mg BID fasted, Cohort 1, Day 14)?
A: 3.0 h

Q: And the t1/2 (100 mg BID fed, Cohort 2, Day 1 AM, Geo. Mean)?
A: 4.16 h

Q: What about the AUC0-12 [4] of the same compound?
A: 470 ng·h/mL

Q: And the Cmax [4]?
A: 85.9 ng/mL

Q: What about the tmax (100 mg BID fed, Cohort 2, Day 1 AM) of the same compound?
A: 2.0 h

Q: What about the AUC0-12 [5] of the same compound?
A: 714 ng·h/mL

Q: And the AUC0-24 [5]?
A: 1160 ng·h/mL

Q: What about the “AUC0-∞” value [5] of the same compound?
A: 1090 ng·h/mL

Q: What about the Cmax [5] of the same compound?
A: 119 ng/mL

Q: And the AUC0-12 [6]?
A: 748 ng·h/mL

Q: What about the AUC0-24 [6] of the same compound?
A: 1220 ng·h/mL

Q: What about the tmax (100 mg BID fed, Cohort 2, Day 1 PM) of the same compound?
A: 3.0 h

Q: And the AUC0-12 [7]?
A: 1050 ng·h/mL

Q: What about the “AUC0-∞” value [7] of the same compound?
A: 1380 ng·h/mL

Q: And the t1/2 [7]?
A: 5.24 h

Q: What about the Cmax [8] of the same compound?
A: 168 ng/mL

Q: What about the t1/2 [8] of the same compound?
A: 5.31 h

Q: What about the tmax (100 mg BID fed, Cohort 2, Day 7 AM) of the same compound?
A: 3.0 h

Q: And the AUC0-12 [9]?
A: 875 ng·h/mL

Q: And the AUC0-24 [9]?
A: 1930 ng·h/mL

Q: What about the “AUC0-∞” value [9] of the same compound?
A: 1700 ng·h/mL

Q: And the Cmax [9]?
A: 106 ng/mL

Q: What about the t1/2 [9] of the same compound?
A: 7.91 h

Q: And the Cmax (100 mg BID fed, Cohort 2, Day 7 PM, Mean)?
A: 112 ng/mL

Q: And the tmax (100 mg BID fed, Cohort 2, Day 7 PM)?
A: 6.0 h

Q: And the RCmax (100 mg BID fed, Cohort 2, Day 14 AM, Day 14/Day 1 accumulation ratio, Geo. Mean)?
A: 1.90

Q: What about the AUC0-12 [10] of the same compound?
A: 900 ng·h/mL

Q: And the AUC0-24 [10]?
A: 1220 ng·h/mL

Q: And the “AUC0-∞” value [10]?
A: 1780 ng·h/mL

Q: What about the Cmax [10] of the same compound?
A: 155 ng/mL

Q: And the t1/2 [10]?
A: 19.0 h

Q: And the AUC0-12 [11]?
A: 943 ng·h/mL

Q: And the AUC0-24 [11]?
A: 1270 ng·h/mL

Q: What about the Cmax [11] of the same compound?
A: 168 ng/mL

Q: What about the t1/2 [11] of the same compound?
A: 19.6 h

Q: What about the tmax (100 mg BID fed, Cohort 2, Day 14 AM) of the same compound?
A: 2.0 h

Q: What about the “time to peak plasma concentrations (range), Day 1” value (100 mg KAR5585 BID, Part 2 Cohort 1 (fasted state)) of the same compound?
A: 2.0 to 6.0 h

Q: And the “median tmax Day 14” value (100 mg KAR5585 BID, fasted)?
A: 3.0 hour postdose

Q: What about the “mean peak concentration relative to corresponding peak mean concentration of KAR5585, Day 1” value [12] of the same compound?
A: approximately 7.25 fold

Q: And the “mean peak concentration relative to corresponding peak mean concentration of KAR5585, Day 14” value [12]?
A: ~9.1 fold

Q: And the “half-life, Day 14” value (100 mg KAR5585 BID, fasted state)?
A: 18.8 h

Q: And the “median tmax Day 14” value (100 mg KAR5585 BID, fed)?
A: 3.0 hour postdose

Q: What about the AUC0-12 [13] of the same compound?
A: 1620 ng·h/mL

Q: What about the “AUC0-∞” value [13] of the same compound?
A: 1980 ng·h/mL

Q: And the t1/2 [13]?
A: 4.41 h

Q: What about the AUC0-12 (200 mg BID fed, Cohort 3, Day 1 AM, Mean) of the same compound?
A: 1700 ng·h/mL

Q: What about the tmax (200 mg BID fed, Cohort 3, Day 1 AM) of the same compound?
A: 3.0 h

Q: And the AUC0-24 [14]?
A: 3540 ng·h/mL

Q: What about the “AUC0-∞” value [14] of the same compound?
A: 2640 ng·h/mL
